The text below walks through data of patent publication US11078183B2, “Tetrahydrate of H3 ligand, its process of preparation and pharmaceutical compositions comprising the same” (BIOPROJET, priority 2017, dated 2021).

Data set [1] is described as follows: Stability studies according to ICH (purity on anhydrous substance over time). It counts as physicochemical. As to conditions: for purity on anhydrous substance: specifications 98.0-102.0%; for degradation observed (in words): up to 6 months. As for the experimental part:
Stability studies have been performed according to ICH.
Similar results were obtained for the 3 months sample at 30° C./65% relative humidity:
Stability has been assessed under ICH conditions.

Data set [2] in a line: Hygroscopy: water content over storage time. It counts as physicochemical. From the text: This compound is hygroscopic. It uptakes water during time.
Data set [3] can be described thus: Degradation on drying (main impurity over drying time). To be noted: for Main impurity: drying at 60° C. Type of data set: physicochemical. As for the experimental part: Drying was not complete at 60° C. over 24 hours.
Assay in data set [4]: as above
It counts as physicochemical.

For the next data set, the target named is histamine H3 (Homo sapiens, UniProt Q9Y5N1). As to conditions: among the H3 ligands disclosed in WO 2006/117609; cited from earlier work.
Where [5] appears, read: 40° C./75% relative humidity, 0 months.
Where [6] appears, read: 40° C./75% relative humidity, 1 month.
[7] abbreviates: 40° C./75% relative humidity, 3 months.
Setting [8] is: 40° C./75% relative humidity, 6 months.

Where a name gives a salt, the structure may show the parent alone. Read-outs that look alike come from different tables or passages of the source.

histamine H3, sequence (Q9Y5N1 whole entry): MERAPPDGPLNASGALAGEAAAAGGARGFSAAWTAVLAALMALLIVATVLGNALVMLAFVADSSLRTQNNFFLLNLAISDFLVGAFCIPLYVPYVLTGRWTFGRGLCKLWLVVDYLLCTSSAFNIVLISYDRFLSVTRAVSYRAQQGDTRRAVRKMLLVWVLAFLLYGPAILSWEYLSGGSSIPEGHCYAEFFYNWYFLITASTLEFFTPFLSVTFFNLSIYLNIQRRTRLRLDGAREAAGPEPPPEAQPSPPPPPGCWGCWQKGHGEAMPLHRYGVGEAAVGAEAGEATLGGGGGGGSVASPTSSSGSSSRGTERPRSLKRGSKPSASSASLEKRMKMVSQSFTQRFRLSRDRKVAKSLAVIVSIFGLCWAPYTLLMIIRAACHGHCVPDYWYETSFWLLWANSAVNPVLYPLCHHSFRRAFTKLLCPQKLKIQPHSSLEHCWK

With `C[C@H]1CCCN(CCCOc2ccc(-c3cc[n+]([O-])cc3)cc2)C1` [Example 1, (3S)-4-{4-[3-(3-methylpiperidin-1-yl)propoxy]phenyl}pyridine 1-oxide, dihydrochloride, tetrahydrate], the “purity on anhydrous substance” value stood at 99.6 in data set [1] (setting [5]), 100.3 in data set [1] (setting [6]), 99.7 in data set [1] (setting [7]) and 100.3 in data set [1] (setting [8]). Besides, in data set [1] (40° C./75% relative humidity), the “degradation observed (in words)” value is “no degradation is observed”. Besides, in data set [2], the “hygroscopicity (in words)” value is reported as “not hygroscopic”. Moreover, the water content in data set [2] (setting [5]) turned out to be 16 % in weight; in data set [2] (setting [6]), 16 % in weight; in data set [2] (setting [7]) it was 15 % in weight; in data set [2] (setting [8]), 16 % in weight; in data set [2] (40° C./75% relative humidity, 12 months), 15 % in weight. The “water content modification (in words)” value in data set [2] (40° C./75% relative humidity, up to 12 months) was “no water content modification is observed”.
`C[C@H]1CCCN(CCCOc2ccc(-c3cc[n+]([O-])cc3)cc2)C1` [Example 52 of WO 2006/117609, (3S)-4-{4-[3-(3-methylpiperidin-1-yl)propoxy]phenyl}pyridine 1-oxide, dihydrochloride]: the “purity on anhydrous substance” value in data set [1] (30° C./65% relative humidity, 0 months) is listed as 100.2; in data set [1] (30° C./65% relative humidity, 3 months), 98.4; in data set [1] (40° C./75% relative humidity, 0 months, dihydrochloride) it was 100.2; in data set [1] (40° C./75% relative humidity, 1 month, dihydrochloride), 100.8; in data set [1] (40° C./75% relative humidity, 3 months, dihydrochloride), 98.2; in data set [1] (40° C./75% relative humidity, 6 months, dihydrochloride), 98.4. In data set [1] (40° C./75% relative humidity, dihydrochloride), the “degradation observed (in words)” value is “some degradation is observed”. This compound also registered a loss of purity in data set [1] (within six months, 40° C./75% relative humidity) of 2%. The water content is listed as 1 % in weight in data set [2] (batch stored under Good Manufacturing Practice, 0 months); 2 % in weight in data set [2] (batch stored under Good Manufacturing Practice, 6 months); 4 % in weight in data set [2] (batch stored under Good Manufacturing Practice, 11 months). Also, the “hygroscopicity (in words)” value in data set [2] (dihydrochloride) is reported as “hygroscopic”; in data set [2] (listed as dihydrochloride salt, dihydrochloride), “too hygroscopic”. Besides, in data set [3] (drying at 60° C. over 24 hours), the “completeness of drying (in words)” value is on record as “not complete”. The Main impurity in data set [3] (0 hr) is given as 0.08%; in data set [3] (8 hr) it was 0.08%; in data set [3] (12 hr), 0.08%; in data set [3] (24 hr), 0.10%; in data set [4] (drying at 80° C., 0 hr), 0.08%; in data set [4] (drying at 80° C., 8 hr), 0.11%. In addition, the Main impurity turned out to be 0.12% in data set [4] (drying at 80° C., 16 hr); 0.14% in data set [4] (drying at 80° C., 24 hr); 0.08% in data set [4] (drying at 100° C., 0 hr); 0.32% in data set [4] (drying at 100° C., 8 hr); 0.44% in data set [4] (drying at 100° C., 16 hr). The “outcome of drying (in words)” value in data set [4] (drying at 80° C. or 100° C., complete removal of water) is “some decomposition occurred”.
As to `C[C@H]1CCCN(CCCOc2ccc(-c3cc[n+]([O-])cc3)cc2)C1` [(3S)-4-{4-[3-(3-methylpiperidin-1-yl)propoxy]phenyl}pyridine 1-oxide], the “potency as H3 ligand (in words)” value at histamine H3 is “very potent”.
